Tests used:
IDO1 [1] = target: T1, IDO1 (Homo sapiens (Human), UniProt P14902); test: IDO1 Enzyme Assay; assay type: biochemical; conditions: HIS-tagged recombinant IDO1, tryptophan substrate, fluorescence readout; for IC50: read-out: IDO1 Enzyme, pIC50 (converted)
Method: Compounds to be tested were serially diluted in ten 3-fold steps in DMSO starting from 10 mM DMSO stocks. Compound dilutions or DMSO alone were then dispensed from the dilution plate into a Greiner black 384-well assay plate (catalog #781086) using an Echo 555 acoustic liquid handler (Labcyte).
HIS-tagged IDO1 protein was recombinantly expressed in Escherichia coli using ZYP5052 autoinduction media supplemented with 500 μM delta aminolevulinic acid for 48 hours at 16 degrees Celsius. IDO1 protein was purified using Ni^2+-affinity resin and size exclusion chromatography. Purified protein was then diluted in assay buffer (50 mM Tris pH 7.0, 1% glycerol, 20 uM methylene blue, 0.05% Tween-20, 20 mM sodium ascorbate, 100 units/mL catalase to obtain a final IDOL concentration of 40 nM. IDOL solution ([…]) or buffer alone ([…]) were dispensed to wells of the assay plate using a BioRAPTR liquid dispenser (Beckman Coulter). Assay plates containing compound and IDO1 enzyme were incubated at room temperature for 30 minutes. Afterwards, 10 μL of 400 μM tryptophan in assay buffer were added to each well of the assay plate using a BioRAPTR liquid dispenser. Plates were incubated at room temperature for 60 minutes and reactions were quenched by addition of 10 μL of 0.5 M methyl isonipecotate in dimethyl sulfoxide. Plates were sealed and incubated at 37 degrees Celsius for 4 hours or 50 degrees Celsius for 2 hours. The plates are allowed to cool and then centrifuged for 1 minute at 1000×g. The resulting fluoresence was measured in an Envision plate reader (Perkin Elmer) with a 400/25 nm excitation filter and an 510/20 nm emission filter.
Potencies were calculated by linear least squares fit to the four parameter logistic IC50 equation.

IDO1 [2] = target: T1, IDO1; test: IDO1 HEK293 Cellular Assay; assay type: cell-based; conditions: HEK293 cells transfected with Flag-IDO1, 200 μM L-Tryptophan, 20-24 hours; for IC50: read-out: HEK293 cell, pIC50 (converted)
Method: IDO1 HEK293 Cellular Assay
Compounds to be tested were serially diluted in ten 3-fold steps in DMSO starting from 10 mM DMSO stocks. Compound dilutions or DMSO alone were then dispensed from the dilution plate into a Greiner black 384-well assay plate (catalog #781086) using an Echo 550 acoustic liquid handler (Labcyte).
HEK293 cell pellets were resuspended to 5×10^5 cells/mL in complete HEK293 culture media (89% DMEM, 10% FBS, 1% penicilllin/streptomycin). Suspended cells (2 mL) were dispensed into each well of a 6-well Corning plate (Catalog#3516). Cells were allowed to attach and were incubated for 20 hours at 37 degrees Celsius in a 5% CO2 incubator. Flag-IDO1 vector (Genscript True ORF Gold, 2 ug) in 150 uL of Opti-MEM medium was added to each well of a Corning 24 well plate (Cat#3527) and incubated for 5 minutes at room temperature. To each well of the 24-well plate was added 150 μL Lipofectamine 2000 (Gibco) and the plate incubated at room temperature for 20-30 minutes. To each well of attached cells in the 6-well plate, 250 μL of the transfection mix from the 24well plate was gently added to each well and IDO1 protein was allowed to express for 24-30 hours at 37 degrees Celsius in a 5% CO2 incubator.
Media was removed from the cells which were then washed with 2 mL Dulbecco's phosphate-buffered saline (DPBS). After removal of DPBS, 0.5 mL of TrypLE (Gibco) was added and incubated at 5 minutes until cells lift from the surface of the wells. Complete HEK293 culture media (4 mL) was added to each well and cells were collected and pooled into a conical tube. Cells were pelleted at 200×g for 5 minutes and resuspended in an equal volume of complete DMEM medium. Cells were diluted to 4×10^5 cells per mL in complete HEK293 media. L-Tryptophan was added to added to give a final concentraiton of 200 μM. The diluted transfected cells (50 μL) or nontransfected cells (50 μL) were dispensed into wells of Greiner black 384-well assay plates (catalog #781086) containing previously diluted compounds. The plate is briefly mixed and centrifuged at 200×g for 10 seconds to collect cells at the bottom of the plate. Plates were covered and incubated for 20-24 hours at 37 degrees C. in a 5% CO2 incubator. Afterwards 10 μL of 0.5 M methyl isonipecotate in dimethyl sulfoxide was added to each well, mixed, sealed, and centrifuged at 500 rpm for 10 seconds. Plates were incubated at 37 degrees in a 5% CO2 incubator overnight to develop fluoresence. The plates are allowed to cool and then centrifuged for 1 minute at 1000×g. The resulting fluoresence was measured in an Envision plate reader (Perkin Elmer) with a 400/25 nm excitation filter and an 510/20 nm emission filter.
The fluoresence intensity of each well was corrected for the background observed in wells with untransfected cells and was expressed as a fraction of the intensity observed in wells of IDO1 transfected cells and DMSO only. Potencies were calculated by linear least squares fit to the four parameter logistic IC50 equation.

TDO [3] = target: T2, TDO (Homo sapiens (Human), UniProt P48775); test: A172 kynurenine cell-based assay; conditions: A172 human glioblastoma cells, 500 μM L-tryptophan, 48 hours
T2 sequence (P48775 whole entry): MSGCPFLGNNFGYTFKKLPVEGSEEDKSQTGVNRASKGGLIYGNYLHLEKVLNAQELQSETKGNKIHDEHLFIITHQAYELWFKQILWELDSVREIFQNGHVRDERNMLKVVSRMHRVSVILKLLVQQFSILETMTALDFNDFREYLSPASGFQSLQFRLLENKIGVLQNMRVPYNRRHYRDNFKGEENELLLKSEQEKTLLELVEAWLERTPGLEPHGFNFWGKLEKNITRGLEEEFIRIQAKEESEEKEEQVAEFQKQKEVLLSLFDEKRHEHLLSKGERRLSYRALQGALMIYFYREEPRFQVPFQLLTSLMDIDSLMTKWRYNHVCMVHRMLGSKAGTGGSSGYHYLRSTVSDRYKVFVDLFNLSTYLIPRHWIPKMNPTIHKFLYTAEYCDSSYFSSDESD
Method: (§1) Exemplary compounds of the invention were prepared, and tested to determine their effect as TDO and/or IDO inhibitors. Two different assays were employed: 1. a cell-based assay for detecting the effect of test compounds on kynurenine production in two different cancer cell types. This assay utilised cancer cells which expressed either TDO or IDO and as such was used as a means of testing compound activity at these two enzymes in a cell-based context. 2. a TDO and IDO biochemical coupled assay which utilised recombinantly produced and purified TDO and IDO enzymes in combination with the enzyme formamidase. This coupled enzyme system allowed conversion of N-formylkynurenine produced by TDO or IDO activity to kynurenine which was then quantified by fluorescence following addition of Erhlich's Reagent The protocols for these are set out below.
(§2) Cell Based Assay for Detection of Kynurenine Produced by TDO and/or IDO
(§3) A172 (human glioblastoma) and SKOV3 (human ovarian adenocarcinoma) cells were seeded in a 96 well plate at 30,000 or 40,000 cells per well respectively in phenol red-free RPMI supplemented with 10% FCS, 2 mM L-glutamine and 500 μM L-tryptophan. IDO expression was induced in the SKOV3 cells by the addition of 500 ng/ml IFN-γ. Cells were incubated at 37° C. with or without the addition of test compound. After 48 hours, the cells were removed by centrifugation and Erhlich's reagent was added to the supernatant. The Erhlich's reagent was incubated for 5 minutes before the absorbance was read at 490 nm.

IDO [4] = target: T3, IDO (Homo sapiens (Human), UniProt P14902); test: SKOV3 kynurenine cell-based assay (IDO induced by IFN-γ); conditions: SKOV3 human ovarian adenocarcinoma cells, 500 ng/ml IFN-γ, 500 μM L-tryptophan, 48 hours
T3 sequence (P14902 whole entry): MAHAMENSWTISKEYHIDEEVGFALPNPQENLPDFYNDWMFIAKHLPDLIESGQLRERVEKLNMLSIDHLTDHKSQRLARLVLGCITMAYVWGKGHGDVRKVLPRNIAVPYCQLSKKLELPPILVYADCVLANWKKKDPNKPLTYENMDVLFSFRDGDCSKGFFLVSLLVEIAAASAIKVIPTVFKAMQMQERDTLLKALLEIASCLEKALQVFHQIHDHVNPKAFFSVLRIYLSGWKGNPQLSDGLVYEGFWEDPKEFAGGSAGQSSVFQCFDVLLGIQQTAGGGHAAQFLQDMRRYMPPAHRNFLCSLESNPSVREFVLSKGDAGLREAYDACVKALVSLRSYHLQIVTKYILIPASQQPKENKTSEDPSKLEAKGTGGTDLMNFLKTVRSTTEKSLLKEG
Method: as §1, §2, §3

IDO [5] = target: T3, IDO; test: hIDO biochemical coupled assay; conditions: 45 μM L-tryptophan, 17 minutes at room temperature
Method: as §1
(§4) TDO and IDO Biochemical Coupled Assay
(§5) Recombinant human IDO or TDO was incubated in 50 mM KPO4 (pH 7.0), 0.5 mM EGTA, 0.5 mM EDTA, 0.05% Triton™ X100, 20 mM ascorbate, 10 μM methylene blue, 500 U/ml catalase, 50 μg/ml KynB (kynurenine formamidase). TDO assays were carried out in the presence of 330 μM L-tryptophan, while IDO assays had the addition of 45 μM L-tryptophan. After incubation for 17 minutes at room temperature the reactions were stopped by the addition of Erhlich's reagent and incubated at room temperature for 5 minutes before the fluorescence was read (Ex 475, Em530).

TDO [6] = target: T2, TDO; test: hTDO biochemical coupled assay; conditions: 330 μM L-tryptophan, 17 minutes at room temperature
Method: as §1, §4, §5

T1 sequence (P14902 whole entry): as above

Compound | A172 Kynurenine cell based assay, pIC50 (TDO [3]) | SKOV3 Kynurenine cell based assay, pIC50 (IDO [4]) | IC50 (IDO1 [1]) | IC50 (IDO1 [2]) | further results
CC1(C)CN(c2cc(Br)cc3cncn23)CCN1S(C)(=O)=O [Compound 1021] | +++ (+++ = pIC50 ≥5.50) | +++ (+++ = pIC50 ≥5.50) |  |  | IDO1 Enzyme, pIC50 (IDO1 [1]): 6.8; HEK293 cell, pIC50 (IDO1 [2]): 6.7
CN1C(=O)N(C2CCN(c3cc(C(F)(F)F)cc4cncn34)CC2)C(=O)C1(C)C [Compound 1034] | ++ (++ = pIC50 4.50-5.49) | ++ (++ = pIC50 4.50-5.49) |  |  | hIDO biochemical assay, pIC50 (IDO [5]): ++ (++ = pIC50 4.50-5.49); hTDO biochemical assay, pIC50 (TDO [6]): ++ (++ = pIC50 4.50-5.49)
Cc1noc(C2CCN(c3cc(C(F)(F)F)cc4cncn34)CC2)c1C(N)=O [Compound 1035, 3-methyl-5-{1-[7-(trifluoromethyl)imidazo[1,5-a]pyridin-5-yl]piperidin-4-yl}isoxazole-4-carboxamide] |  |  | 251 nM | 501 nM | 
CNC(=O)c1c(C)noc1C1CCN(c2cc(C(F)(F)F)cc3cncn23)CC1 [Compound 1036, N,3-dimethyl-5-{1-[7-(trifluoromethyl)imidazo[1,5-a]pyridin-5-yl]piperidin-4-yl}isoxazole-4-carboxamide] |  |  | 398 nM | 2510 nM | 
Cn1c(N)c(N2CCN(c3cc(C(F)(F)F)cc4cncn34)CC2)c(=O)n(C)c1=O [Compound 1037, 6-amino-1,3-dimethyl-5-{4-[7-(trifluoromethyl)imidazo[1,5-a]pyridin-5-yl]piperazin-1-yl}pyrimidine-2,4(1H,3H)-dione] |  |  | 794 nM | 3980 nM | 
FC(F)(F)c1cc(N2CCC(n3cnnn3)CC2)n2cncc2c1 [Compound 1038, 5-[4-(1H-tetrazol-1-yl)piperidin-1-yl]-7-(trifluoromethyl)imidazo[1,5-a]pyridine] |  |  | 1000 nM | 794 nM | 
